pIC50: −log10 of the molar value.
Key:
[1] = tested on: isolated bladder muscle of BOO model rat; assay: Effect of various drugs on α1 receptor stimulation-induced contraction of isolated bladder muscle of bladder outlet obstruction (BOO) model rat; conditions: phenylephrine 3 μmol/L
Experimental: Effect of Various Drugs on α1 Receptor Stimulation-Induced Contraction of Isolated Bladder Muscle of Bladder Outlet Obstruction (BOO) Model Rat
(§1) • (i) Seven-week-old male Wistar rats (CLEA Japan, Inc., Tokyo) were used. BOO rat was prepared according to publications (Hashimoto T, Nagabukuro H and Doi T: Effects of the selective acetylcholinesterase inhibitor TAK-802 on the voiding behavior and bladder mass increase in rats with partial bladder outlet obstruction. J Urol. 174: 1137-41., 2005.). After pentobarbital (50 mg/kg i.p., Dainippon Sumitomo Pharma Co., Ltd., Osaka) anesthesia, a lower middle abdominal incision was made to expose the bladder. The prostate was detached, the urethra was ligated along with a glass rod having an outer diameter of 1.2 mm, and the glass rod was removed to prepare partial obstruction of the urethra. After the surgery, the abdomen was sutured, and penicillin (2000 IU/rat, penicillin G potassium, MEIJI SEIKA KAISHA, LTD., Tokyo) was subcutaneously administered. An animal after 2 to 4 weeks from obstruction surgery was used. • (ii) Contractile Responses of Isolated Bladder Muscle (1) Preparation of Bladder Muscle Specimen
BOO model rat was sacrificed by decaptation, and the bladder was isolated. Muscle strips (length 7-10 mm, width about 3 mm) in the longitudinal direction were prepared from the bladder except bladder trigone (4-6 specimen from each bladder).
(§2) The prepared bladder muscle specimens were hung in a Magnus bath aerated with 95% O2-5% CO2 gas and filled with modified Krebs solution. The contraction tension was measured by an isometric strain transducer (TSD125C, Biopac systems, Santa Barbara, Calif., USA) and recorded in the hard disc of PC (ThinkCentre, IBM, USA) via an amplifier (DA100C, Biopac systems) and a multichannel data analysis apparatus (MP100A-CE, Biopac systems). For uptaking the data, a dedicated software (Acqknowledge 3.8.1., Biopac systems) was used and the sampling interval was set to 0.2 second (5 Hz). The specimens were hung with a load of about 1 g and, after an equilibration time of 1 hr or longer, the following experiment was performed.
The specimens were treated with phenylephrine (3 μmol/L) to induce contraction. After the contractile response was stabilized (>20 min), the specimens were cumulatively treated 3 times with a drug at a 10-fold common ratio and 30 min intervals, and the variation in the tension was observed.
The variation in the tension due to α1 receptor stimulation was evaluated by the two methods shown below [average method and standard deviation (Stddev) method].
The average tension for one minute was measured immediately before phenylephrine treatment and after the contraction was stabilized after the treatment (immediately before completion of about 20 min observation time), and the difference was taken as 100%. The average tension for one minute was measured immediately before completion of observation time (30 min) after treatment with a drug at each concentration, and the inhibition rate of the drug at each concentration was calculated. In the vehicle treatment group, the variation rate of phenylephrine-induced contraction was calculated every time the specimens were treated 3 times with lo the solvent, and the inhibition rate of the drug at each concentration was adjusted based on the variation rate of the corresponding vehicle treatment group. The concentration (IC50) necessary for inhibiting the average tension by 50% by preclinical package (SAS Institute Japan, Ver. 5.0) was calculated based on the inhibition rate at each concentration.
The standard deviation was measured immediately before phenylephrine treatment and for 5 min after the contraction was stabilized after treatment (immediately before completion of the about 20 min observation time) and the difference was taken as 100%. […]

[2] = tested on: isolated bladder muscle of BOO model rat; assay: Effect of SNAP-8719 on α1 receptor stimulation-induced contraction of isolated bladder muscle of bladder outlet obstruction (BOO) model rat; conditions: phenylephrine 3 μmol/L, average value ± standard error, N=5-8
Experimental: Effect of SNAP-8719 on α1 Receptor Stimulation-Induced Contraction of Isolated Bladder Muscle of Bladder Outlet Obstruction (BOO) Model Rat
as §1
BOO model rat was sacrificed by decaptation, and the bladder was isolated. Muscle strips (length 7-10 mm in the longitudinal direction, width about 3 mm) were prepared from the bladder except bladder trigone (4-6 specimen from each bladder).
as §2
The specimens were treated with phenylephrine (3 μmol/L) to induce contraction.
The standard deviation was measured for 5 minutes immediately before phenylephrine treatment and for 5 minutes after the contraction was stabilized after treatment (immediately before completion of the about 20 min observation time) and the difference was taken as 100%. The standard deviation was measured for 5 minutes immediately before completion of observation time (30 min) after the SNAP-8719 treatment, and the inhibition rate was calculated. In the vehicle treatment group, the variation rate of phenylephrine-induced contraction was calculated every time the specimens were repeatedly treated with the vehicle, and the inhibition rate of SNAP-8719 was adjusted based on the variation rate of the corresponding vehicle treatment group. • (iii) Action of SNAP-8719 on α1 Receptor Stimulation-Induced Contraction of Isolated Bladder Muscle of BOO Model Rat
After the phenylephrine-induced contraction was stabilized, the specimens were treated with the vehicle 0-4 times at 30 min intervals, treated with SNAP-8719 (1 μmol/L), and the variation in the contraction tension in 30 min was observed. […] Therefore, the evaluation by cumulative treatment with a drug was performed for up to 3 concentrations at 30 min intervals.

With C[C@H](CN1CCN(c2cc(F)c(F)cc2F)CC1)N1C(=O)CC2(CCCC2)CC1=O [SNAP-8719] the “effect on the rhythmic contractile response induced by phenylephrine (average method and Stddev method), in words” value [1] was “inhibited”, the pIC50 ([1]; concentration inhibiting the average tension by 50%, cumulative treatment, 3 concentrations, 30 min intervals, read-out: Inhibitory effect on phenylephrine-induced contraction IC50 (average method)) was 6.44 and the “Inhibitory effect on phenylephrine-induced contraction IC30 (stddev method)” value ([1]; concentration inhibiting the sustained, rhythmic contractile responses by 30%, cumulative treatment, 3 concentrations, 30 min intervals) was 180 nM. For the same compound, the “inhibition rate of phenylephrine-induced contraction (standard deviation method, vehicle adjusted value)” value ([2]; SNAP-8719 1 μmol/L after treatment with vehicle 0 times) was 51.2±12.4%, the “inhibition rate of phenylephrine-induced contraction (standard deviation method, vehicle adjusted value)” value ([2]; SNAP-8719 1 μmol/L after treatment with vehicle 1 time at 30 min intervals) was 47.4±9.1% and the “inhibition rate of phenylephrine-induced contraction (standard deviation method, vehicle adjusted value)” value ([2]; SNAP-8719 1 μmol/L after treatment with vehicle 2 times at 30 min intervals) was 66.6±8.7%. For the same compound, the “inhibition rate of phenylephrine-induced contraction (standard deviation method, vehicle adjusted value)” value ([2]; SNAP-8719 1 μmol/L after treatment with vehicle 3 times at 30 min intervals) was 36.3±9.4% and the “inhibition rate of phenylephrine-induced contraction (standard deviation method, vehicle adjusted value)” value ([2]; SNAP-8719 1 μmol/L after treatment with vehicle 4 times at 30 min intervals) was 8.7±32.3%.

From US8470859B2, “Iminopyridine derivative and use thereof” (Takeda Pharmaceutical Company Limited, priority 2006, dated 2013)
